Measurements from patent US20250102494A1, “COMPOSITION FOR PREDICTING OXALIPLATIN DRUG EFFICACY, AND USE THEREOF” (SAMSUNG LIFE PUBLIC WELFARE FOUNDATION, priority 2022, published 2025).

Test system: HCT116 cells
Assay: ATPlite cell viability after drug treatment, HCT116 cells in cell-line or organoid culture media
Assay type: cell-based
Details: HCT-116; for drug response, colorectal cancer cell line compared with cells under Ex1 organoid culture conditions: FIG. 2; for drug responsiveness, colorectal cancer cell line compared with organoids cultured in Ex1 and Ex2: FIG. 25
Method: Advanced DMEM/F12+++ (hereinafter referred to as “Ad/DF+++”) was used to produce colorectal cancer organoids. Ad/DF+++ was refrigerated at 4° C. until use, and was used in a cold state during cell washing. Ad/DF+++ medium containing the reagents shown in Table 1 below along with Ad/DF 1× (Gibco) was prepared.
After preparing the Ad/DF+++ medium containing the above reagents, an appropriate amount of Matrigel (Corning #356231) was added so that the ratio between Matrigel and cells suspended in the Ad/DF+++ medium was 7:3. Then, the cells were plated on low attachment well plates at an appropriate density. The density and the type and number of well plates were determined according to the characteristics of each cell type. The medium was prepared according to the composition shown in Table 2 below, and the cells were cultured (expanded) until the required level was reached while the medium was replaced every 3 to 4 days.
If the organoids were expanded as needed for the experiment, the medium was carefully removed, taking care not to touch the Matrigel. The cells were separated from the Matrigel by pipetting about 20 times with 1 ml of cold Ad/DF+++. The cells in 1 to 4 wells per 6-well plate were collected in one 50 ml tube. If cells are collected from more than 4 wells into one tube, the Metrigel may not be washed properly. For this reason, the cells were placed in several tubes. Thereafter, Ad/DF+++ was poured to 20 to 50 ml of each tube, followed by centrifugation at 400 g for 3 minutes at 4° C. The cells were dissociated with 1 to 2 mL of TrypLE™ Express Enzyme (Gibco, 1264-013), transferred to low-attachment 24 well plates, and then treated with 10 μM of Y-27632. Next, the cells were cultured in a CO2 incubator for 5 minutes at 37° C. After pipetting about 20 times, whether the cells would be dissociated into single cells was checked by microscopic observation. If the cells were not dissociated into single cells, the culture under CO2 and pipetting processes were repeated. After the single cells were transferred into 15-ml tubes, Ad/DF+++ was filled to 10 to 15 ml of each tube, followed by centrifugation at 400 g at 4° C. for 3 minutes. After suspending the pellet in Ad/DF+++, the cells were counted and diluted with medium according to the required number of cells.
12 hours after seeding in Experimental Example 1-2 above, the medium was changed with the medium shown in Table 3 below, followed by culturing to produce organoids.
Four hours after the medium change, the cells were treated with oxaliplatin, 5-FU, Irinotecan, and folinic acid. Five days after drug treatment, intracellular ATP expression was determined using the ATPlite assay kit (PerkinElmer), and the data were expressed in terms of cell viability, IC50, and AUC.
As the standard for confirming that cells are sensitive to the drug, the response of the cells to the drug was assumed to be 100%, and the luminescence value of surviving cells after drug treatment was analyzed and compared with the quantified drug response value.
Based on the assumption that the factor that increases the resistance of the organoids to oxaliplatin is an activator or inhibitor that changes the phenotype, the organoids prepared by excluding some or all of activators and inhibitors as shown in Table 4 below were treated with oxaliplatin.
In order to identify the factors that reduce the resistance to oxaliplatin of the Ex2 organoid, activators or inhibitors that change the phenotype were added one by one to the Ex2 organoid composition, thus producing organoids as shown in Table 8 below. Then, it was checked whether the produced organoids had increased resistance to oxaliplatin.

SMILES	drug response, colorectal cancer cell line compared with cells under Ex1 organoid culture conditions	drug responsiveness, colorectal cancer cell line compared with organoids cultured in Ex1 and Ex2
Nc1nc(=O)c2c([nH]1)NCC(CNc1ccc(C(=O)N[C@@H](CCC(=O)O)C(=O)O)cc1)N2C=O (mixture of isomers) [folinic acid]	drug response results similar to those of the cells cultured under the organoids culture conditions	drug responses similar to the cells cultured in the organoid culture conditions
O=c1[nH]cc(F)c(=O)[nH]1 [5-FU, 5-fluorouracil]	drug response results similar to those of the cells cultured under the organoids culture conditions	drug responses similar to the cells cultured in the organoid culture conditions
CCc1c2c(nc3ccc(OC(=O)N4CCC(N5CCCCC5)CC4)cc13)-c1cc3c(c(=O)n1C2)COC(=O)[C@]3(O)CC [irinotecan]	drug response results similar to those of the cells cultured under the organoids culture conditions	drug responses similar to the cells cultured in the organoid culture conditions
